Results published in article PMC9459959, “Synthesis and Activity of 2-Acyl-cyclohexane-1,3-dione Congeners Derived from Peperomia Natural Products against the Plant p-Hydroxyphenylpyruvate Dioxygenase Herbicidal Molecular Target Site” (Plants, 2022).

Each molecule was assayed against T1, HPPD (p-hydroxyphenylpyruvate dioxygenase) (Arabidopsis thaliana, UniProt P93836) (assay: HPLC of homogentisate formed ([…] nm), dose-response). Details: 15 min incubation; slow tight-binding class; E. coli total soluble protein extract; positive control; read-out: I50app.
T1 construct: gene HPD; recombinant, overexpressed in E. coli, tested in total soluble protein extract; 1SP9 given only as docking structure
T1 sequence (P93836 1-445): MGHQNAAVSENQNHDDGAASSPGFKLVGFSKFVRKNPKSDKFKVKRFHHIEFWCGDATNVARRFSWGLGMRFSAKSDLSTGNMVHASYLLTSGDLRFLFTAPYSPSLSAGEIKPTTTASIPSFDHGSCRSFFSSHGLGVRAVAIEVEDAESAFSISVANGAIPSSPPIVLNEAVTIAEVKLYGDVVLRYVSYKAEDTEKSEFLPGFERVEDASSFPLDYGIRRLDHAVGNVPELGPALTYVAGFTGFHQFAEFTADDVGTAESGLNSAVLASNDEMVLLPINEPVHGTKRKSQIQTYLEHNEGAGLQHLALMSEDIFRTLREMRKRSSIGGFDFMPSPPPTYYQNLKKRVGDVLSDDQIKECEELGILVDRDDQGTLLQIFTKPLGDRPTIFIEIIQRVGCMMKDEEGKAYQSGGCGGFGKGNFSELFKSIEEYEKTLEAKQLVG
Format: biochemical

| Compound | IC50 [µM] |
| --- | --- |
| CS(=O)(=O)c1ccc(C(=O)C2C(=O)CCCC2=O)c(Cl)c1 [sulcotrione, reference compound] | 0.25 ± 0.02 |

Same assay, conditions: read-out: I50 (μM) ^ab

| Compound | IC50 [µM] |
| --- | --- |
| Cc1ccccc1C=CC(=O)C1C(=O)CC(C)(C)CC1=O [9c] | 28.7 ± 8.7 |
| COc1ccc(C=CC(=O)C2C(=O)CCCC2=O)cc1OC [12a] | 9.16 ± 1.21 |
| CCCCCCCCCc1noc2c1C(=O)C(O)CC2 (stereo not shown) [4c] | > 100 |
| CCCCCCCCCCCc1noc2c1C(=O)C(O)C(C)(C)C2 (stereo not shown) [5g] | > 100 |
| COc1cc(CCC(=O)C2C(=O)CC(C)(C)CC2=O)cc(OC)c1OC [14d] | 2.29 ± 0.25 |
| O=C1CCCC(=O)C1C(=O)CCc1ccccc1 [8b] | 1.27 ± 0.09 |
| Cc1noc2c1C(=O)CCC2 [1a] | > 100 |
| COc1ccc(C=CC(=O)C2C(=O)CCCC2=O)cc1 [11a] | 12.3 ± 1.6 |
| Cc1noc2c1C(=O)C(O)C(C)(C)C2 (stereo not shown) [1g] | > 100 |
| COc1ccc(CCC(=O)C2C(=O)CC(C)(C)CC2=O)cc1 [11e] | 12.9 ± 2.18 |
| CC1(C)CC(=O)C(C(=O)C=Cc2ccc(Br)cc2)C(=O)C1 [17c] | 8.34 ± 1.57 |
| COc1ccc(CCC(=O)C2C(=O)CCCC2=O)cc1OC [12b] | 1.35 ± 0.18 |
| CN(C)c1ccc(CCC(=O)C2C(=O)CC(C)(C)CC2=O)cc1 [15d] | 3.46 ± 0.64 |
| CC1(C)CC(=O)C(C(=O)CCc2ccc(Cl)cc2)C(=O)C1 [16d] | 2.05 ± 0.19 |
| CCCCCCCCCCCC(=O)C1C(=O)CCCC1=O [5b] | 0.3 ± 0.03 |
| CN(C)c1ccc(CCC(=O)C2C(=O)CCCC2=O)cc1 [15b] | 4.47 ± 0.51 |
| CCCC(=O)C1C(=O)CCCC1=O [2a] | 35.1 ± 6.24 |
| CCCCCCCCCC(=O)C1C(=O)CC(C)(C)CC1=O [4e] | 2.66 ± 0.95 |
| Cc1noc2c1C(=O)CC(C)(C)C2 [1e] | > 100 |
| COc1ccc(C=CC(=O)C2C(=O)CC(C)(C)CC2=O)cc1OC [12c] | 14.1 ± 2.21 |
| COc1cccc(CCC(=O)C2C(=O)CC(C)(C)CC2=O)c1 [10d] | 1.5 ± 0.17 |
| COc1ccc(CCC(=O)C2C(=O)CC(C)(C)CC2=O)cc1OC [12d] | 8.69 ± 1.32 |

| Compound | IC50 [µM] |
| --- | --- |
| COc1cc(C=CC(=O)C2C(=O)CCCC2=O)cc(OC)c1OC [14a] | 2.06 ± 0.13 |
| CCCC(=O)C1C(=O)CC(C)(C)CC1=O [2b] | 16.6 ± 4.36 |
| CC1(C)CC(=O)C(C(=O)C=Cc2ccc([N+](=O)[O-])cc2)C(=O)C1 [19b] | 27.5 ± 2.39 |
| O=C(C=Cc1ccccc1)C1C(=O)CCCC1=O [8a] | 5.43 ± 0.58 |
| CC(=O)C1=C(O)C(O)C(C)(C)CC1=O (stereo not shown) [1h] | 166 ± 19.7 |
| O=C(C=Cc1ccc([N+](=O)[O-])cc1)C1C(=O)CCCC1=O [19a] | 7.61 ± 0.89 |
| CC(=O)CCCC(=O)C1C(=O)CCCC1=O [7a] | 9.6 ± 1.4 |
| CCCCCCCCCCCC(=O)C1C(=O)CC(C)(C)CC1=O [5f] | 0.77 ± 0.11 |
| COc1cccc(C=CC(=O)C2C(=O)CC(C)(C)CC2=O)c1 [10c] | 6.4 ± 1.2 |
| CCCCCC(=O)C1=C(O)C(O)CCC1=O (stereo not shown) [3d] | 15.8 ± 4.9 |
| Cc1ccccc1C=CC(=O)C1C(=O)CCCC1=O [9a] | 1.2 ± 0.14 |
| CCCCCc1noc2c1C(=O)C(O)CC2 (stereo not shown) [3c] | > 100 |
| CCCCCc1noc2c1C(=O)CCC2 [3a] | > 100 |
| CC(=O)C1C(=O)CCCC1=O [1b] | 23.1 ± 4.34 |
| CCCCCCCCCC(=O)C1C(=O)CCCC1=O [4b] | 0.46 ± 0.06 |
| CCCCCC(=O)C1C(=O)CC(C)(C)CC1=O [3e] | 4.17 ± 0.45 |
| O=C(C=Cc1ccc(Br)cc1)C1C(=O)CCCC1=O [17a] | 7.55 ± 0.93 |
| Cc1ccccc1CCC(=O)C1C(=O)CCCC1=O [9b] | 0.97 ± 0.09 |
| COc1ccc(CCC(=O)C2=C(O)C(O)CCC2=O)cc1 (stereo not shown) [11c] | 59.5 ± 11.8 |
| O=C(/C=C/c1ccc(Br)cc1)C1=C(O)C(O)CCC1=O (stereo not shown) [17b] | 28.7 ± 4.82 |
| CCCCCCCCCc1noc2c1C(=O)CCC2 [4a] | > 100 |
| Cc1noc2c1C(=O)C(O)CC2 (stereo not shown) [1c] | > 100 |

| Compound | IC50 [µM] |
| --- | --- |
| CCCCCCCCCC(=O)C1=C(O)C(O)CCC1=O (stereo not shown) [4d] | 1.25 ± 0.4 |
| CCCCCCCCCCCCCCCCC(=O)C1C(=O)CCCC1=O [6a] | 1.58 ± 0.2 |
| CCCCCC(=O)C1C(=O)CCCC1=O [3b] | 2.93 ± 0.47 |
| O=C(/C=C/c1ccccc1)C1=C(O)C(O)CCC1=O (stereo not shown) [8c] | 59 ± 3.16 |
| CCCCCCCCCCCc1noc2c1C(=O)C(O)CC2 (stereo not shown) [5c] | > 100 |
| CC1(C)CC(=O)C(C(=O)CCc2ccccc2)C(=O)C1 [8e] | 2.17 ± 0.37 |
| O=C(C=Cc1cccc(Br)c1)C1C(=O)CCCC1=O [18a] | 0.82 ± 0.08 |
| COc1cccc(CCC(=O)C2C(=O)CCCC2=O)c1 [10b] | 0.31 ± 0.04 |
| CC1(C)CC(=O)C(C(=O)C=Cc2cccc(Br)c2)C(=O)C1 [18b] | 2.42 ± 0.25 |
| CC(=O)CCCC(=O)C1C(=O)CC(C)(C)CC1=O [7b] | 17.2 ± 2.6 |
| CC(=O)C1C(=O)CC(C)(C)CC1=O [1f] | 53.1 ± 17.1 |
| O=C1CCCC(=O)C1C(=O)CCc1ccc(Cl)cc1 [16b] | 0.24 ± 0.02 |
| CCCCCCCCCCCc1noc2c1C(=O)CCC2 [5a] | > 100 |
| COc1cc(C=CC(=O)C2C(=O)CC(C)(C)CC2=O)cc(OC)c1OC [14c] | 2.22 ± 0.5 |
| COc1ccc(C=CC(=O)C2C(=O)CC(C)(C)CC2=O)cc1 [11d] | 141 ± 27 |
| CC(=O)C1=C(O)C(O)CCC1=O (stereo not shown) [1d] | > 1000 |
| COc1ccc(CCC(=O)C2C(=O)CCCC2=O)cc1 [11b] | 2.36 ± 0.3 |
| COc1cccc(C=CC(=O)C2C(=O)CCCC2=O)c1 [10a] | 0.89 ± 0.1 |
| CCCCCCCCCCCCCCCCC(=O)C1C(=O)CC(C)(C)CC1=O [6b] | 1.7 ± 0.31 |
| CCCCCCCCCCCC(=O)C1=C(O)C(O)CCC1=O (stereo not shown) [5d] | 0.18 ± 0.02 |
| CCCCCCCCCCCc1noc2c1C(=O)CC(C)(C)C2 [5e] | > 100 |
| CC1(C)CC(=O)C(C(=O)C=Cc2ccccc2)C(=O)C1 [8d] | 58.6 ± 8.67 |
